Measurements published in article PMC6349357, “Computational and experimental analysis of bioactive peptide linear motifs in the integrin adhesome” (PLoS ONE, 2019).
Marks after values point to notes of the source that are not given here.

Tests used:
TRAP-activated platelets = test: Inhibition of TRAP-induced platelet aggregation after pre-incubation with peptide; assay type: cell-based, human (healthy volunteers)
Outline: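 Washed human platelets (from ACD blood, PGE1-treated) were used at 3x10^5/μl in buffer A pH 7.4 with 1.8 mM CaCl2. Light-transmission aggregometry ran at 37°C with stirring at 1100 rpm. Peptide or buffer was added at 2 min, TRAP 6 min later, and aggregation was recorded for a further 7 min.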

[1] = tested on: tyrosine phosphorylation in platelets; test: Phosphotyrosine western blot (4G10) of platelets treated with peptide; assay type: cell-based, human (healthy volunteers); design: key to Phospho: R: in resting platelets; A: after TRAP activation; conditions: phosphorylation changes associated with peptide treatment; pal 20 μM, tat 50 μM, TRAP 4 μM
Protocol: A platelet concentration of 3x10^5 /μl was used when performing standard aggregations and a concentration of 1x10^6 /μl was used for sample preparation for western blot analysis. The extent of platelet aggregation was measured by quantifying the optical density of the samples using the Bio-Data PAP-8 aggregometer (platelet aggregation profiler, Horsham, PA, USA). A temperature of 37°C was maintained and samples were stirred using magnets spinning at 1100 rpm. 200 μl of washed platelets was added to each aggregation tube. Different volumes of buffer, peptide and TRAP were added to achieve the desired concentrations. Peptide/buffer was added to each well after two minutes. TRAP, with a final concentration depending on the experiment, was added 6 minutes later and data was collected for an additional 7 minutes.
After the aggregation step, tubes were immediately placed on ice. 27 μl of lysis buffer was then added and the tube was vortexed vigorously. Lysates were left on ice for one hour and vortexed frequently. Proteins were then centrifuged at 14,000 rcf for 10 minutes to remove debris. Samples were then mixed with 2x sample buffer. 50 μl each sample was added to 50 μl of sample buffer. The protein was then denatured by heating to 95°C for 5 minutes. 10 μl of lysate was kept for protein quantification. All samples and lysates were frozen at -80°C.
The Bradford assay was then performed on the lysates to determine protein concentration. Protein concentrations were measured using the Bio-Rad DC Protein Assay. A calibration was created using samples containing a known concentration of bovine serum albumin. These were prepared in advance by sequential dilutions with final concentrations of 1.5mg/ml, 1mg/ml, 0.8mg/ml, 0.6mg/ml, 0.4mg/ml, 0.2mg/ml, 0mg/ml. Samples were then dispensed into a 96 well plate and the Bio-Rad DC reagents were added as described in the protocol. Samples were left to rest for 15 minutes and were then read using 690 0.15 mode on the Wallac plate reader. A standard curve was calculated from the standard samples of known concentration and the y = ax+b equation was used to determine the concentration of the other samples.
Sodium Dodecyl Sulfate Polyacrylamide Gel Electrophoresis (SDS-PAGE) was performed to separate proteins by molecular weight. Polyacrylamide gels were prepared (see Reagents section). Samples or molecular markers were loaded in volumes to give 20 μg of protein. The gels were then run for approximately 80 minutes or until the samples reached the end of the gel. The proteins were then transferred to polyvinylidene difluoride (PVDF) membranes using a Bio-Rad Wet Blot Transfer Cell apparatus. During the transfer the membranes were submerged in 1x transfer buffer (10% 10x transfer buffer, 70% deionised water and 20% methanol). Transfer was performed either overnight at 40 volts at 4°C, or at 100 volts for 1 hour cooled with an ice block. After the transfer the membranes were blocked for 1 hour using 3% bovine albumin serum (BSA) dissolved in TBS-T. Membranes were incubated with 4G10 antibody with a 1:1000 dilution. Unbound primary antibody was washed off with TBS-T three times for 5 minutes each. Membranes were then incubated with anti-mouse IgG secondary antibody (Millipore) with a dilution of 1:30,000. Membranes were submerged in chemiluminescence ECL solution (Thermo Scientific). They were then measured using the western blot developer UVP. One image was taken every 80 seconds for 40 minutes. Numeric data was extracted from selected blots using ImageJ.

## tat-WEQLLTTIARTINEVENQI-(NH2) [tat-ACTN1_VBS]
TRAP-activated platelets; TRAP 2 μM after 6 minutes pre-incubation, 4 μM pal-peptides, 10 μM tat-peptides, mean n = 3
  Aggregation after TRAP, peptide alone 1x (A 1x / B 1x): 68.33
TRAP-activated platelets; TRAP 2 μM after 6 minutes pre-incubation, double concentration of 4 μM (pal) / 10 μM (tat), mean n = 3
  Aggregation after TRAP, peptide alone 2x (A 2x / B 2x): 68.67
TRAP-activated platelets; platelet aggregation induced by 4 μM TRAP in platelets pre-incubated with peptide (low value = inhibition), pal-peptides 20 μM, tat-peptides 50 μM, mean, n>=3
  Platelet aggregation after TRAP activation: 61 ^*
TRAP-activated platelets; replicate donor e, TRAP 4 μM, pal 20 μM, tat 50 μM
  Aggregation after TRAP activation, donor e: 66
TRAP-activated platelets; replicate donor k, TRAP 4 μM, pal 20 μM, tat 50 μM
  Aggregation after TRAP activation, donor k: 51
TRAP-activated platelets; replicate donor l, TRAP 4 μM, pal 20 μM, tat 50 μM
  Aggregation after TRAP activation, donor l: 68
[1]
  Phospho: R
